In patent publication US20020177180A1, “pH-indicator based assay for selective enzymes” (ThermoGen, Inc., priority 1998, published 2002):
Where two headings read alike, the source gives them in different places.

Key:
ThermoGen esterases [1] = experiment: Initial screening (pH indicator): esters as substrates of the ThermoGen esterases, statements for the esterases as a group; type: biochemical; details: for estimated enantioselectivities with ThermoGen esterases (in words): ratio of initial rates of enantiomer pairs; for quality as substrate of the ThermoGen esterases (in words), enantiomer pairs: enantiomer pair library, Tables 8-12; for quality as substrate of the ThermoGen esterases (in words): esters 1-31, initial screening
Experimental: (§1) Initial screening measures the initial rate of hydrolysis of different esters. The rate of reaction was measured by monitoring the release of protons using a pH indicator, 4-nitrophenol. In this assay, the yellow color of the phenoxide disappears as the reaction proceeds. The amount of ester hydrolyzed can be measured quantitatively, as is known in the art.
(§2) To survey the substrate selectivity of the ThermoGen esterases, the ability of the enzymes to hydrolyze thirty-one different commercially-available esters, Scheme 1 (FIG. 9, Table 6).
To evaluate the potential of the ThermoGen esterases for enantioselective reactions, the initial rates of hydrolysis of the esterases were measured using twenty-one pairs of enantiomers, Scheme 2, FIG. 10 and Tables 8-12. The ratio of these initial rates is an estimated enantioselectivity.

[2] = cited from earlier work; for pKa: reported value
esterase E011 = experiment: Initial screening of ThermoGen esterases toward esters 1-31 (pH indicator), specific activity; type: biochemical; details: 1 mM substrate, pH 7.2, 7 vol % acetonitrile, 25° C.
Experimental: as §1

esterase E006 = experiment: as above; type: biochemical; details: 1 mM substrate, pH 7.2, 7 vol % acetonitrile, 25° C.
Experimental: as §1, §2

esterase E012 = experiment: as above; type: biochemical; details: 1 mM substrate, pH 7.2, 7 vol % acetonitrile, 25° C.
Experimental: as §1, §2

esterase E014 = experiment: as above; type: biochemical; details: 1 mM substrate, pH 7.2, 7 vol % acetonitrile, 25° C.
Experimental: as §1, §2

esterase E015 = experiment: as above; type: biochemical; details: 1 mM substrate, pH 7.2, 7 vol % acetonitrile, 25° C.
Experimental: as §1, §2

esterase E016 = experiment: as above; type: biochemical; details: 1 mM substrate, pH 7.2, 7 vol % acetonitrile, 25° C.
Experimental: as §1, §2

esterase E020 = experiment: as above; type: biochemical; details: 1 mM substrate, pH 7.2, 7 vol % acetonitrile, 25° C.
Experimental: as §1, §2

ThermoGen esterases [3] = experiment: True substrate selectivity measurements (competitive, resorufin ester), esters as substrates of the ThermoGen esterases; type: biochemical
Experimental: Esterase solution (5 μL in 5 mM BES) was added to each well and the microplate was placed in the microplate reader, shaken for 5 s and the decrease in absorbance at 404 nm and the increase in absorbance at 574 nm were measured as often as permitted by the microplate reader, typically every 11 s. Data was collected for 20 minutes, at 25° C., in triplicate and was averaged. Activities were calculated from the equations above using the linear, initial portions of the curve.
However, it is faster to measure selectivity of each substrate as it competes against a third substrate, which we call a reference compound. The ratio of the two competitive reactions is the true selectivity. […] Since some substrates react rapidly while others react slowly, we require both fast-reacting and slow-reacting reference compounds. In some cases we replaced resorufin acetate with the slower reacting resorufin pivaloate or resorufin isobutyrate as reference compounds.
The true selectivity of the ThermoGen esterases toward different acyl chain length was determined using a competitive experiment. Resorufin esters were used as the competitive substrate as explained above and normalized the results to hexanoate =100, Table 7. The true selectivities were similar to the estimated selectivities.

Experimental for physchem: The large difference in the extinction coefficients of the protonated and deprotonated forms (200 vs 18,000 M^−1 cm^−1 at 404 nm) gave good sensitivity. The extinction coefficients changed slightly upon addition of cosolvent and was determined experimentally.

Compound | Specific activity, esterase E011 (esterase E011) | Specific activity, esterase E006 (esterase E006) | Specific activity, esterase E012 (esterase E012) | Specific activity, esterase E014 (esterase E014) | Specific activity, esterase E015 (esterase E015) | Specific activity, esterase E016 (esterase E016) | Specific activity, esterase E020 (esterase E020) | quality as substrate of the ThermoGen esterases (in words) (ThermoGen esterases [1]) | further results
COC(=O)C(N)Cc1c[nH]c2ccccc12 (single isomer, unassigned) [Substrate 50] |  |  |  |  |  |  |  |  | estimated enantioselectivities with ThermoGen esterases (in words) (ThermoGen esterases [1]): estimated enantioselectivities above two with several esterases
O=C1CCC(CO)O1 (single isomer, unassigned) [Substrate 51] |  |  |  |  |  |  |  |  | quality as substrate of the ThermoGen esterases (in words), enantiomer pairs (ThermoGen esterases [1]): poorest substrates
CC1(C)COC(=O)C1O (single isomer, unassigned) [Substrate 52] |  |  |  |  |  |  |  |  | quality as substrate of the ThermoGen esterases (in words), enantiomer pairs (ThermoGen esterases [1]): poorest substrates
O=[N+]([O-])c1ccc(O)cc1 [4-nitrophenol] |  |  |  |  |  |  |  |  | pKa upon addition of 10% ethanol ([2]; previously shown): 7.17; pKa [2]: 7.2
O=S(=O)(O)CCCN1CCN(CCO)CC1 [EPPS, N-[2-hydroxylethyl]piperazine-N′-[3-propanesulfonic acid]] |  |  |  |  |  |  |  |  | pKa [2]: 8.0
O=S(=O)(O)CCN1CCOCC1 [MES, 2-[N-morpholino]ethanesulfonic acid] |  |  |  |  |  |  |  |  | pKa [2]: 6.1
CC(C)(C)CC(=O)Oc1ccc2nc3ccc(=O)cc-3oc2c1 [Substrate 10, Resorufin t-butylacetate (resorufin 3,3-dimethylbutyrate), reference compound] | 2.7 mmol ester hydrolyzed/min/mg protein | 5.7 mmol ester hydrolyzed/min/mg protein | 22 mmol ester hydrolyzed/min/mg protein | 1.0 mmol ester hydrolyzed/min/mg protein | 5.9 mmol ester hydrolyzed/min/mg protein | 50 mmol ester hydrolyzed/min/mg protein | 14 mmol ester hydrolyzed/min/mg protein | good substrate for several esterases | 
C=COC(=O)c1ccccc1 [Substrate 10, vinyl benzoate] |  |  |  |  |  |  |  |  | quality as substrate in true selectivity measurements (in words) (ThermoGen esterases [3]): poor substrates
C=COC(=O)C(C)(C)C [Substrate 11, vinyl pivaloate] |  |  |  |  |  |  |  |  | quality as substrate in true selectivity measurements (in words) (ThermoGen esterases [3]): poor substrates
C=COC(=O)C(C)(C)C [Substrate 11] | 0.80 mmol ester hydrolyzed/min/mg protein | 0.52 mmol ester hydrolyzed/min/mg protein | 16 mmol ester hydrolyzed/min/mg protein | 0.40 mmol ester hydrolyzed/min/mg protein | 4.0 mmol ester hydrolyzed/min/mg protein | 20 mmol ester hydrolyzed/min/mg protein | 1.2 mmol ester hydrolyzed/min/mg protein | poor substrate for all the esterases | 
CCCC(=O)OCC [Substrate 13] | 0.71 mmol ester hydrolyzed/min/mg protein | 1.1 mmol ester hydrolyzed/min/mg protein | <2 mmol ester hydrolyzed/min/mg protein | 0.40 mmol ester hydrolyzed/min/mg protein | 2.0 mmol ester hydrolyzed/min/mg protein | 3.5 mmol ester hydrolyzed/min/mg protein | 3.0 mmol ester hydrolyzed/min/mg protein | reacted much slower | 
CCOC(=O)C(F)(F)F [Substrate 17] | 2.7 mmol ester hydrolyzed/min/mg protein | 1.7 mmol ester hydrolyzed/min/mg protein | 1200 mmol ester hydrolyzed/min/mg protein | 1.4 mmol ester hydrolyzed/min/mg protein | 190 mmol ester hydrolyzed/min/mg protein | 1500 mmol ester hydrolyzed/min/mg protein | 0.35 mmol ester hydrolyzed/min/mg protein | best substrates | 
COC(=O)CO [Substrate 20] | <0.1 mmol ester hydrolyzed/min/mg protein | 0.11 mmol ester hydrolyzed/min/mg protein | <2 mmol ester hydrolyzed/min/mg protein | <0.1 mmol ester hydrolyzed/min/mg protein | <0.1 mmol ester hydrolyzed/min/mg protein | <2 mmol ester hydrolyzed/min/mg protein | <0.2 mmol ester hydrolyzed/min/mg protein | usually poor substrates | 
COC(=O)C(O)c1ccccc1 (centres unmarked) [Substrate 21] | 0.04 mmol ester hydrolyzed/min/mg protein | <0.1 mmol ester hydrolyzed/min/mg protein | <2 mmol ester hydrolyzed/min/mg protein | <0.1 mmol ester hydrolyzed/min/mg protein | <0.1 mmol ester hydrolyzed/min/mg protein | <2 mmol ester hydrolyzed/min/mg protein | <0.2 mmol ester hydrolyzed/min/mg protein | usually poor substrates | 
CC(=O)Oc1ccccc1 [Substrate 26] | 270 mmol ester hydrolyzed/min/mg protein | 300 mmol ester hydrolyzed/min/mg protein | 30 mmol ester hydrolyzed/min/mg protein | 150 mmol ester hydrolyzed/min/mg protein | 320 mmol ester hydrolyzed/min/mg protein | 190 mmol ester hydrolyzed/min/mg protein | 390 mmol ester hydrolyzed/min/mg protein | best substrates | 
CCOC(=O)CN.Cl [Substrate 31] | 0.1 mmol ester hydrolyzed/min/mg protein | <0.1 mmol ester hydrolyzed/min/mg protein | 6.0 mmol ester hydrolyzed/min/mg protein | <0.1 mmol ester hydrolyzed/min/mg protein | <0.1 mmol ester hydrolyzed/min/mg protein | 13 mmol ester hydrolyzed/min/mg protein | 1.4 mmol ester hydrolyzed/min/mg protein | usually poor substrates | 
CC(=O)OC1CC(C)CCC1C(C)C (centres unmarked) [Substrate 36] |  |  |  |  |  |  |  |  | estimated enantioselectivities with ThermoGen esterases (in words) (ThermoGen esterases [1]): estimated enantioselectivities above two with several esterases
O=S1(=O)OC(c2ccc(O)c(Cl)c2)(c2ccc(O)c(Cl)c2)c2ccccc21 [chlorophenol red] |  |  |  |  |  |  |  |  | pKa [2]: 6.0
O=c1ccc2nc3ccc(O)cc3oc-2c1 [resorufin alcohol, resorufin] |  |  |  |  |  |  |  |  | pKa (physchem): 8.15
Cc1cc(O)c(C(C)C)cc1C1(c2cc(C(C)C)c(O)cc2C)OS(=O)(=O)c2ccccc21 [thymol blue] |  |  |  |  |  |  |  |  | pKa [2]: 9.2
